Test results published in paper PMC7395068, “The evolution of strategies to minimise the risk of human drug-induced liver injury (DILI) in drug discovery and development” (Archives of Toxicology, 2020).
Read-outs that look alike come from different tables or passages of the source.

How the values were obtained:
[1] = read-out: Human plasma Cmax; total plasma Cmax.tot, median of 9 literature references; cited from earlier work
[2] = system: THLE or HepG2 cells, isolated mitochondria, BSEP; details: cited from earlier work
[3] = system: HepaRG spheroids; experiment: Combined HCI (HCS) and cellular ATP 3D assay in HepaRG spheroids; details: for HepaRG <25x Avg Cmax ATP / HepaRG <25x Avg Cmax HCS / HepaRG <25x Avg Cmax All: cut-off <25x Avg Cmax; for HepaRG <25x Avg Cmax All: all endpoints (ATP and HCS); for HepaRG Cmax max All: Cmax max used; for HepaRG Cmax min All: Cmax min used; for AC50 / minimal effective concentration: Homo sapiens; for DILI prediction HepaRG spheroids (HCS-MEC): Microtissue model structural based (HCI), combined HCS and ATP, MEC < 25 × Cmax.tot cut-off
[4] = system: PHH spheroids; details: In vitro Assay; ref Vorrink 2018; cited from earlier work
[5] = plasma free fraction; cited from earlier work
[6] = system: THLE-Null and THLE-3A4 cells; details: In vitro Assay; ref Gustafsson 2014; cited from earlier work
[7] = system: hLiMTs; experiment: Combined HCI (HCS) and cellular ATP 3D assay in hLiMTs; details: for AC50 / minimal effective concentration: Homo sapiens; for DILI prediction hLiMTs (HCS-MEC): Microtissue model structural based (HCI), combined HCS and ATP, MEC < 25 × Cmax.tot cut-off; for hLiMTs <25x Avg Cmax ATP / hLiMTs <25x Avg Cmax HCS / hLiMTs <25x Avg Cmax All: cut-off <25x Avg Cmax; for hLiMTs <25x Avg Cmax All: all endpoints (ATP and HCS); for hLiMTs Cmax max All: Cmax max used; for hLiMTs Cmax min All: Cmax min used
[8] = Plasma free fraction (fu) and unbound Cmax (Cmax,u); assay type: in vitro ADME, human; details: unbound plasma Cmax
[9] = system: HepG2 C3A spheroid, BSEP, Glu/Gal in HepG2 cells, bioactivation; details: cited from earlier work; for Bayesian Machine Learning DILI prediction, Williams (2019): Bayesian modeling, ref Williams et al. 2019; for Bayesian Machine Learning: In vitro Assay, ref Williams 2019
[10] = system: rBsep; details: In vitro Assay; ref Dawson 2012; cited from earlier work
[11] = system: human hepatocytes; details: cited from earlier work
[12] = system: isolated mouse liver mitochondria; details: In vitro Assay; ref Porceddu 2012; cited from earlier work
[13] = system: HepG2 cells, primary human hepatocytes; details: In vitro Assay; ref Garside 2014; cited from earlier work
[14] = Modeled in vitro assays (cytotoxicity, mitochondrial dysfunction, BSEP), ref Aleo et al. 2019
[15] = HepaRG, read-out: ATP endpoint AC50
[16] = HepaRG, read-out: ATP endpoint MEC
[17] = HepaRG, read-out: HCS endpoint AC50
[18] = HepaRG, read-out: HCS endpoint MEC

For `CN1CCN(C2=Nc3cc(Cl)ccc3Nc3ccccc32)CC1` [clozapine], the Cmax [1] is given as 2450 nM, the “Partition Hybrid HRM Score” value ([2]; In vitro Assay, ref Aleo 2019) is given as “+VE” and the “Ro2 Hybrid HRM Score” value ([2]; In vitro Assay, ref Aleo 2019) is given as “+VE”. The “Partition Hybrid HRM Score ≥4, Aleo (2019)” value [2, 14] was “+VE (Partition Hybrid HRM Score ≥4)”, the “Partition Hybrid HRM Score ≥8, Aleo (2019)” value [2, 14] was “-VE” and the “Rule of Two hybrid HRM Score ≥3, Aleo (2019)” value [2, 14] was “+VE (Rule of Two hybrid HRM Score ≥3)”. The “Rule of Two hybrid HRM Score ≥8, Aleo (2019)” value [2, 14] was “-VE”, the “HepaRG <25x Avg Cmax ATP” value ([3]; HepaRG, ATP endpoint) was “+ve” and the “HepaRG <100x Avg Cmaxu ATP” value ([3]; HepaRG, ATP endpoint, cut-off <100x Avg Cmaxu) was “-ve”. The “HepaRG <25x Avg Cmax HCS” value ([3]; HepaRG, HCS endpoints) was “+ve”, the “HepaRG <100x Avg Cmaxu HCS” value ([3]; HepaRG, HCS endpoints, cut-off <100x Avg Cmaxu) was “+ve (<100x Avg Cmaxu)” and the “HepaRG <25x Avg Cmax All” value ([3]; HepaRG) was “+ve”. For the same compound, the “HepaRG Cmax max All” value ([3]; HepaRG, all endpoints) was “+ve”, the “HepaRG Cmax min All” value ([3]; HepaRG, all endpoints) was “+ve” and the “HepaRG <10 uM All” value ([3]; HepaRG, all endpoints, cut-off <10 uM) was “+ve (<10 uM)”. For the same compound, the “HepaRG <100x Avg Cmaxu All” value ([3]; HepaRG, all endpoints, cut-off <100x Avg Cmaxu) was “+ve (<100x Avg Cmaxu)”, the AC50 [3, 15] was 16.6 µM and the minimal effective concentration [3, 16] was 13.1 µM. For the same compound, the AC50 [3, 17] was 13.2 µM, the minimal effective concentration [3, 18] was 4.66 µM and the “DILI prediction HepaRG spheroids (HCS-MEC)” value [3] was “+VE (MEC < 25 × Cmax.tot cut-off)”. The “hLiMTs ATP <20 x Cmax” value [4] was “+VE (IC20 < 20 × Cmax.tot cut-off)”, the fu [5] was 0.030 and the THLE-Null [6] was “-VE”. The AC50 ([7]; read-out: ATP endpoint AC50) was 14 µM, the minimal effective concentration ([7]; read-out: ATP endpoint MEC) was 10.5 µM and the AC50 ([7]; read-out: HCS endpoint AC50) was 15.2 µM. The minimal effective concentration ([7]; read-out: HCS endpoint MEC) was 5.61 µM, the “DILI prediction hLiMTs (HCS-MEC)” value [7] was “+VE (MEC < 25 × Cmax.tot cut-off)” and the “hLiMTs <25x Avg Cmax ATP” value ([7]; hLiMTs, ATP endpoint) was “+ve”. The “hLiMTs <100x Avg Cmaxu ATP” value ([7]; hLiMTs, ATP endpoint, cut-off <100x Avg Cmaxu) was “-ve”, the “hLiMTs <25x Avg Cmax HCS” value ([7]; hLiMTs, HCS endpoints) was “+ve” and the “hLiMTs <100x Avg Cmaxu HCS” value ([7]; hLiMTs, HCS endpoints, cut-off <100x Avg Cmaxu) was “+ve (<100x Avg Cmaxu)”. The “hLiMTs <25x Avg Cmax All” value ([7]; hLiMTs) was “+ve”, the “hLiMTs Cmax max All” value ([7]; hLiMTs, all endpoints) was “+ve” and the “hLiMTs Cmax min All” value ([7]; hLiMTs, all endpoints) was “+ve”. For the same compound, the “hLiMTs <10 uM All” value ([7]; hLiMTs, all endpoints, cut-off <10 uM) was “+ve (<10 uM)”, the “hLiMTs <100x Avg Cmaxu All” value ([7]; hLiMTs, all endpoints, cut-off <100x Avg Cmaxu) was “+ve (<100x Avg Cmaxu)” and the “Human plasma Cmax,u” value [8] was 73 nM. The “Bayesian Machine Learning DILI prediction, Williams (2019)” value [9] was “+VE”, the “Bayesian Machine Learning” value [9] was “+VE” and the “Inhibition of rBsep cutoff<1& cmax u>.2” value [10] was “-VE”. The “Inhibition of rBsep cutoff<3” value [10] was “+VE”.
For `COc1ccc2c(c1)c(CC(=O)O)c(C)n2C(=O)c1ccc(Cl)cc1` [indomethacin], the Cmax [1] is listed as 8380 nM, the “Structural based (HCI)” value ([11]; In vitro Assay, ref Xu 2008) is listed as “-VE” and the “DILI in vitro assay prediction, Xu (2008)” value ([11]; Structural based (HCI), human hepatocytes, ref Xu et al. 2008) is listed as “-VE”. For the same compound, the “HepaRG <25x Avg Cmax ATP” value ([3]; HepaRG, ATP endpoint) was “+ve”, the “HepaRG <25x Avg Cmax HCS” value ([3]; HepaRG, HCS endpoints) was “+ve” and the “HepaRG <25x Avg Cmax All” value ([3]; HepaRG) was “+ve”. The “HepaRG Cmax max All” value ([3]; HepaRG, all endpoints) was “+ve”, the “HepaRG Cmax min All” value ([3]; HepaRG, all endpoints) was “+ve” and the AC50 [3, 15] was 94.2 µM. For the same compound, the minimal effective concentration [3, 16] was 79.2 µM, the AC50 [3, 17] was 215 µM and the minimal effective concentration [3, 18] was 23.8 µM. For the same compound, the “DILI prediction HepaRG spheroids (HCS-MEC)” value [3] was “+VE (MEC < 25 × Cmax.tot cut-off)”, the “hLiMTs ATP <20 x Cmax” value [4] was “+VE (IC20 < 20 × Cmax.tot cut-off)” and the “in vitro data EC2<=1x Cmax” value [12] was “+VE”. The fu [5] was 0.010, the THLE-Null [6] was “-VE” and the “Cluster 1-6 +VE Assay” value [13] was “-VE”. For the same compound, the AC50 ([7]; read-out: ATP endpoint AC50) was 9.29 µM, the minimal effective concentration ([7]; read-out: ATP endpoint MEC) was 4.54 µM and the AC50 ([7]; read-out: HCS endpoint AC50) was 672 µM. For the same compound, the minimal effective concentration ([7]; read-out: HCS endpoint MEC) was 95.2 µM, the “DILI prediction hLiMTs (HCS-MEC)” value [7] was “+VE (MEC < 25 × Cmax.tot cut-off)” and the “hLiMTs <25x Avg Cmax ATP” value ([7]; hLiMTs, ATP endpoint) was “+ve”. The “hLiMTs <25x Avg Cmax HCS” value ([7]; hLiMTs, HCS endpoints) was “+ve”, the “hLiMTs <25x Avg Cmax All” value ([7]; hLiMTs) was “+ve” and the “hLiMTs Cmax max All” value ([7]; hLiMTs, all endpoints) was “+ve”. The “hLiMTs Cmax min All” value ([7]; hLiMTs, all endpoints) was “+ve”, the “Human plasma Cmax,u” value [8] was 84 nM and the “Bayesian Machine Learning DILI prediction, Williams (2019)” value [9] was “+VE”. The “Bayesian Machine Learning” value [9] was “+VE”.
